Measured values as given in patent US12649751B2 (Arcus Biosciences, Inc., priority 2022, dated 2026).
Read-outs that look alike come from different tables or passages of the source.

How the values were obtained:
HPK1 = HPK1 (Homo sapiens, UniProt Q92918); experiment: HPK1 Biochemical Assay (ADP-Glo luminescence; low ATP 10 μM or high ATP 200 μM)
[1] = system: p-SLP-76 (Ser376) in Jurkat cells; experiment: pSLP76 Cellular Assay (AlphaLISA SureFire Ultra p-SLP-76 (Ser376), anti-CD3 activated Jurkat cells); assay type: cell-based; settings: Homo sapiens, read-out: Cellular Potency
Outline: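 Read-out is AlphaLISA p-SLP-76 (Ser376) signal at 570 nm in Jurkat lysates, with IC50 fitted by 4-parameter logistic. Cells were starved overnight, exposed 1 h at 37 °C to 22 twofold compound dilutions in HBSS, then activated 45 min with anti-CD3 (0.025 mg/ml stock added).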

[2] = 2 nM HPK1, 10 μM ATP, read-out: Biochemical Potency (low ATP)
[3] = Jurkat cells, anti-CD3 stimulation, pSLP76
[4] = HPK1 ADP-Glo assay, high ATP (200 μM ATP, 5 nM HPK1), read-out: Biochemical Potency (high ATP)
[5] = pSLP76 (Ser376) AlphaLISA, anti-CD3 activated Jurkat cells
[6] = HPK1 ADP-Glo assay, low ATP (10 μM ATP, 2 nM HPK1), read-out: Biochemical Potency (low ATP)

HPK1, sequence (Q92918 whole entry, species assumed): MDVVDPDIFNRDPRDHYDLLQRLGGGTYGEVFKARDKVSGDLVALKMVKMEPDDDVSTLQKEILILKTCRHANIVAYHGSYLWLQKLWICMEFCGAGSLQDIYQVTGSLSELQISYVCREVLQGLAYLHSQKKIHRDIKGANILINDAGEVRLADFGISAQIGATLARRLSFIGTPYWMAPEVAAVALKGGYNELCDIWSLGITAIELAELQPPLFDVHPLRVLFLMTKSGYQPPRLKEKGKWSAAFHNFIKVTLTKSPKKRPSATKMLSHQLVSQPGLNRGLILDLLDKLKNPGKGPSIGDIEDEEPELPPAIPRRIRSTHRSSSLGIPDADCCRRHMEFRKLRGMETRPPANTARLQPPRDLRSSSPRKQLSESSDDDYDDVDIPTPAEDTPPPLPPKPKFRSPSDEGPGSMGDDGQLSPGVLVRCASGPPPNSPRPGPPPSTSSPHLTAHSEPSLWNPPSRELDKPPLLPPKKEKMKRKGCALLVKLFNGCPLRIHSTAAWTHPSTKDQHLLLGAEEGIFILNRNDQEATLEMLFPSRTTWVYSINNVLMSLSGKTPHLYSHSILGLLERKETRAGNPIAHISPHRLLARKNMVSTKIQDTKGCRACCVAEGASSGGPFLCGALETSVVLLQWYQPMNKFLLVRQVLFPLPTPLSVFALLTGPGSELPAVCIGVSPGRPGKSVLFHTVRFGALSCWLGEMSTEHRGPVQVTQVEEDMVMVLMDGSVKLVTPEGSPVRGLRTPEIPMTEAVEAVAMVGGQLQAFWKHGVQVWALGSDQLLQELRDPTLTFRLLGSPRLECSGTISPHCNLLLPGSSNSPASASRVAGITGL

Row | IC50 (HPK1; [2]) | IC50 [1, 3] | IC50 (HPK1; [4]) | IC50 [1, 5] | IC50 (HPK1; [6]) | Compound
1 | 100 to 1000 nM | 1000 to 5000 nM |  |  |  | CN1C[C@@H]2C[C@H]1CN2c1cncc(Nc2cc3nc(-c4cccc(S(=O)(=O)N(C)C)c4)sc3cn2)n1 [Example 288, N,N-dimethyl-3-[6-({6-[(1S,4S)-5-methyl-2,5-diazabicyclo[2.2.1]heptan-2-yl]pyrazin-2-yl}amino)-[1,3]thiazolo[5,4-c]pyridin-2-yl]benzene-1-sulfonamide]
2 | < 100 nM | 100 to 1000 nM |  |  |  | CN(C)C(=O)c1cccc(-c2nc3cc(Nc4cccc(N5C[C@@H]6C[C@H]5CN6)n4)ncc3s2)c1 [Example 140, 3-[6-({6-[(1S,4S)-2,5-Diazabicyclo[2.2.1]heptan-2-yl]pyridin-2-yl}amino)-[1,3]thiazolo[5,4-c]pyridin-2-yl]-N,N-dimethylbenzamide]
3 | < 100 nM | 1000 to 5000 nM |  |  |  | Cc1ccnn1-c1nc2cc(Nc3ccc(C4CCOCC4)c(CN[C@H]4CCOC4)n3)ncc2s1 [Example 209, N-[2-(5-Methyl-1H-pyrazol-1-yl)-[1,3]thiazolo[5,4-c]pyridin-6-yl]-5-(oxan-4-yl)-6-({[(3S)-oxolan-3-yl]amino}methyl)pyridin-2-amine]
4 | < 100 nM | 1000 to 5000 nM |  |  |  | CC(C)(N)c1nc(Nc2cc3nc(-c4c(F)cccc4F)sc3cn2)ccc1N1CCOCC1 [Example 269, 6-(2-Aminopropan-2-yl)-N-[2-(2,6-difluorophenyl)-[1,3]thiazolo[5,4-c]pyridin-6-yl]-5-(morpholin-4-yl)pyridin-2-amine]
5 |  |  | 100 to 1000 nM | 1000 to 5000 nM |  | Cc1cc(Nc2cc3nc(-c4cnn(CC5CC5)c4)sc3cn2)nc(N2C[C@@H]3C[C@H]2CN3CC(=O)N(C)C)n1 [Example 356]
6 |  |  | < 100 nM | 1000 to 5000 nM | < 100 nM | CN1C[C@@H]2C[C@H]1CN2c1nccc(Nc2cc3nc(-c4cccc(NS(C)(=O)=O)c4)sc3cn2)n1 [Example 413]
7 | < 100 nM | > 5000 nM |  |  |  | CN1C[C@@H]2C[C@H]1CN2c1cccc(Nc2cc3nc(-c4cccc(C#N)c4)sc3cn2)n1 [Example 133, 3-[6-({6-[(1S,4S)-5-Methyl-2,5-diazabicyclo[2.2.1]heptan-2-yl]pyridin-2-yl}amino)-[1,3]thiazolo[5,4-c]pyridin-2-yl]benzonitrile]
8 |  |  | 100 to 1000 nM | 1000 to 5000 nM |  | Cc1cc(Nc2cc3nc(-c4cccc(C(=O)N(C)C)c4)sc3cn2)nc(N2C[C@@H]3C[C@H]2CN3C2CCN(S(C)(=O)=O)CC2)n1 [Example 331]
9 |  |  | < 100 nM | 100 to 1000 nM |  | Cc1cccnc1-c1nc2cc(Nc3cc(C4CCC(O)CC4)nc(N4C[C@@H]5C[C@H]4CN5C)n3)ncc2s1 (some centres unmarked) [Example 507]
10 | < 100 nM | 100 to 1000 nM |  |  |  | Cc1c(N)cncc1-c1nc2cc(Nc3ccc(N4CCOCC4)c(CN(C)C)n3)ncc2s1 [Example 29, N-[2-(5-Amino-4-methylpyridin-3-yl)-[1,3]thiazolo[5,4-c]pyridin-6-yl]-6-[(dimethylamino)methyl]-5-(morpholin-4-yl)pyridin-2-amine]
11 |  |  | < 100 nM | 100 to 1000 nM |  | Cc1cc(Nc2cc3nc(-c4cccc(C(=O)N(C)C)c4F)sc3cn2)nc(N2C[C@@H]3C[C@H]2CN3C)n1 [Example 399]
12 |  |  | < 100 nM | 100 to 1000 nM |  | Cc1cc(Nc2cc3nc(-c4cccc(OC(F)F)c4)sc3cn2)nc(N2C[C@@H]3C[C@H]2CN3C)n1 [Example 390]
13 |  |  | < 100 nM | 100 to 1000 nM |  | Cc1cc(Nc2cc3nc(-c4ccnc(N5CCO[C@@H](C)C5)c4)sc3cn2)nc(N2C[C@@H]3C[C@H]2CN3CCO)n1 [Example 446]
14 | < 100 nM | 100 to 1000 nM |  |  |  | Cc1cccnc1-c1nc2cc(Nc3cccc(N4C[C@@H]5C[C@H]4CN5)n3)ncc2s1 [Example 78, 6-[(1S,4S)-2,5-Diazabicyclo[2.2.1]heptan-2-yl]-N-[2-(3-methylpyridin-2-yl)-[1,3]thiazolo[5,4-c]pyridin-6-yl]pyridin-2-amine]
15 |  |  | < 100 nM | < 100 nM |  | Cc1cc(Nc2cc3nc(-c4ccnc(CC5CC5)c4)sc3cn2)nc(N2C[C@@H]3C[C@H]2CN3CCO)n1 [Example 308, 2-[(1S,4S)-5-(4-{2-[2-(cyclopropylmethyl)-4-pyridyl]-3-thia-1,5-diaza-6-indenylamino}-6-methyl-2-pyrimidinyl)-2,5-diazabicyclo[2.2.1]hept-2-yl]ethanol]
16 | < 100 nM | 100 to 1000 nM |  |  |  | Cc1cccnc1-c1nc2cc(Nc3cccc(N4C[C@H](N)C[C@H]4CO)n3)ncc2s1 [Example 70, [(2S,4R)-4-Amino-1-(6-{[2-(3-methylpyridin-2-yl)-[1,3]thiazolo[5,4-c]pyridin-6-yl]amino}pyridin-2-yl)pyrrolidin-2-yl]methanol]
17 | < 100 nM | 1000 to 5000 nM |  |  |  | Cc1ccc(Nc2cc3nc(-n4cccn4)sc3cn2)nc1CN1CCCC1 [Example 200, 5-Methyl-N-[2-(1H-pyrazol-1-yl)-[1,3]thiazolo[5,4-c]pyridin-6-yl]-6-[(pyrrolidin-1-yl)methyl]pyridin-2-amine]

Row | IC50 (HPK1; [2]) | IC50 [1, 3] | IC50 (HPK1; [4]) | IC50 [1, 5] | IC50 (HPK1; [6]) | Compound
18 |  |  | < 100 nM | < 100 nM |  | Cc1cc(Nc2cc3nc(-c4cccc(S(=O)(=O)C5CC5)c4)sc3cn2)nc(N2C[C@@H]3C[C@H]2CN3CCO)n1 [Example 500]
19 | < 100 nM | 100 to 1000 nM |  |  |  | CN(C)Cc1nc(Nc2cc3nc(-c4c(F)cccc4Cl)sc3cn2)ccc1N1CCOCC1 [Example 20, N-[2-(2-Chloro-6-fluorophenyl)-[1,3]thiazolo[5,4-c]pyridin-6-yl]-6-[(dimethylamino)methyl]-5-(morpholin-4-yl)pyridin-2-amine]
20 |  |  | < 100 nM | 100 to 1000 nM | < 100 nM | Cc1cccnc1-c1nc2cc(Nc3cc(C(F)(F)F)cc(N4C[C@@H]5C[C@H]4CN5C)n3)ncc2s1 [Example 323]
21 |  |  | < 100 nM | 100 to 1000 nM |  | CCN1C[C@@H]2C[C@H]1CN2c1nc(C)cc(Nc2cc3nc(-c4cc(C)cc(N5C(=O)CC[C@H]5C)c4)sc3cn2)n1 [Example 466]
22 |  |  | < 100 nM | 100 to 1000 nM |  | Cc1cc(Nc2cc3nc(-c4cccc(C(=O)N(C)C)c4)sc3cn2)nc(N2C[C@@H]3C[C@H]2CN3C[C@@H]2CCOC2)n1 [Example 488]
23 |  |  | < 100 nM | < 100 nM |  | Cc1cc(Nc2cc3nc(-c4ccnc(C(O)C5CC5)c4)sc3cn2)nc(N2C[C@@H]3C[C@H]2CN3CCO)n1 (stereo partly drawn) [Example 307, 2-[(1S,4S)-5-(4-{2-[2-(cyclopropylhydroxymethyl)-4-pyridyl]-3-thia-1,5-diaza-6-indenylamino}-6-methyl-2-pyrimidinyl)-2,5-diazabicyclo[2.2.1]hept-2-yl]ethanol]
24 |  |  | < 100 nM | 100 to 1000 nM |  | CCN1C[C@@H]2C[C@H]1CN2c1nc(C)cc(Nc2cc3nc(-c4cccc(C(=O)N5CCC(C)(C)C5)c4)sc3cn2)n1 [Example 521]
25 | < 100 nM | 100 to 1000 nM |  |  |  | Cc1cc(-c2nc3cc(Nc4ccc(C5CCOC5)c(CN5CCCC5)n4)ncc3s2)ccn1 (centres unmarked) [Example 253, N-[2-(2-Methylpyridin-4-yl)-[1,3]thiazolo[5,4-c]pyridin-6-yl]-5-(oxolan-3-yl)-6-[(pyrrolidin-1-yl)methyl]pyridin-2-amine]
26 | < 100 nM | 100 to 1000 nM |  |  |  | Cc1cccnc1-c1nc2cc(Nc3ccc(C4CCOC4)c(CN4CCCC4)n3)ncc2s1 (racemic) [Example 252, N-[2-(3-Methylpyridin-2-yl)-[1,3]thiazolo[5,4-c]pyridin-6-yl]-5-(oxolan-3-yl)-6-[(pyrrolidin-1-yl)methyl]pyridin-2-amine]
27 |  |  | < 100 nM | < 100 nM |  | Cc1cc(Nc2cc3nc(-c4cccc(C(=O)N[C@@H]5CCCOC5)c4)sc3cn2)nc(N2C[C@@H]3C[C@H]2CN3CCO)n1 [Example 540]
28 | < 100 nM | 100 to 1000 nM |  |  |  | Cc1cccnc1-c1nc2cc(Nc3cncc(N4C[C@@H]5C[C@H]4CN5)n3)ncc2s1 [Example 144, 6-[(1S,4S)-2,5-Diazabicyclo[2.2.1]heptan-2-yl]-N-[2-(3-methylpyridin-2-yl)-[1,3]thiazolo[5,4-c]pyridin-6-yl]pyrazin-2-amine]
29 |  |  | 100 to 1000 nM | 1000 to 5000 nM |  | Cc1cc(Nc2cc3nc(-c4cccc(C(=O)N(C)C)c4)sc3cn2)nc(N2C[C@@H]3C[C@H]2CN3CCN(C)S(C)(=O)=O)n1 [Example 498]
30 | < 100 nM | 1000 to 5000 nM |  |  |  | Cc1cc(-c2nc3cc(Nc4cccc(N5CCNCC5)n4)ncc3s2)ccn1 [Example 85, N-[2-(2-Methylpyridin-4-yl)-[1,3]thiazolo[5,4-c]pyridin-6-yl]-6-(piperazin-1-yl)pyridin-2-amine]
31 | < 100 nM | 1000 to 5000 nM |  |  |  | CNC(=O)c1cccc(-c2nc3cc(Nc4cccc(N5C[C@@H]6C[C@H]5CN6C)n4)ncc3s2)c1 [Example 135, N-Methyl-3-[6-({6-[(1S,4S)-5-methyl-2,5-diazabicyclo[2.2.1]heptan-2-yl]pyridin-2-yl}amino)-[1,3]thiazolo[5,4-c]pyridin-2-yl]benzamide]
32 | < 100 nM | > 5000 nM |  |  |  | Cc1cccnc1-c1nc2cc(Nc3cccc(N4C[C@@H](C)N(C)[C@@H](C)C4)n3)ncc2s1 [Example 100, N-[2-(3-Methylpyridin-2-yl)-[1,3]thiazolo[5,4-c]pyridin-6-yl]-6-[(3R,5S)-3,4,5-trimethylpiperazin-1-yl]pyridin-2-amine]
33 |  |  |  | 1000 to 5000 nM | < 100 nM | Cc1cccnc1-c1nc2cc(Nc3ccc4c(n3)[C@](C)(N)CC4)ncc2s1 [Example 577]
